# How the values were obtained:
# Test in all cases: Therapeutic index (IC50 fibroblasts / MIC90 in broth)
# [1] = system: multi-drug resistant Klebsiella pneumonia (Kleb); assay type: cell-based
# Description: (§1) The OD600 nm levels were monitored until OD600 nm of untreated control reached an OD600 nm of approximately 1.0.
# (§2) Growth and Viability assays (5,000 and 10,000 cells/well respectively) were set up with human neonatal fibroblasts in sterile tissue culture treated 96 well plates in DMEM (Invitrogen #11995) supplemented with 10% fetal calf serum (Invitrogen #10437-028) 1% Antibiotic-Antimycotic (Invitrogen #15240-062). (Incubator set at 37 C and 5% CO2).
# (§3) 10 μl of prepared MTS reagent (Promega # G5430) was added to the wells and absorbance at 490 nm was read once color has stabilized (1-4 hours).
# (§4) The therapeutic index was calculated as the IC50/MIC90.
# [2] = system: multi-drug resistant Acinetobacter baumannii (AcBc); assay type: cell-based
# Description: as §1, §2, §3, §4
# MRSA = assay type: cell-based, Staphylococcus aureus
# Description: as §1, §2, §3, §4
# [3] = system: multi-drug resistant Pseudomonas aeruginosa (Pseudo); assay type: cell-based
# Description: as §1, §2, §3, §4
compound,measurement,setting,value
"N[C@@H](CCC(=O)N[C@@H](CS)C(=O)NCC(=O)O)C(=O)O.[Ag] [GSH-Ag, glutathione silver]",Kleb T.I.,[1],1.4
same,AcBc T.I.,[2],2.9
same,MRSA T.I.,MRSA,1.5
same,Pseudo T.I.,[3],2.9
